Data as given in patent publication US9718782B2, “TrkA kinase inhibitors, compositions and methods thereof” (MERCK SHARP & DOHME CORP, priority 2013, dated 2017).

target: T1, TrkA receptor (Homo sapiens, UniProt P04629); test: DiscoverX PathHunter TrkA functional assay (NGF-stimulated U2OS cells); assay type: cell-based; settings: U2OS cells expressing TrkA-Prolink fusion and Shc1-EA; compound 1 hour, then EC80 NGF 3 hours; luminescence
T1 construct: host or cells: U2OS (PathHunter, 'TrkA p75' cells)
T1 sequence (P04629 33-796): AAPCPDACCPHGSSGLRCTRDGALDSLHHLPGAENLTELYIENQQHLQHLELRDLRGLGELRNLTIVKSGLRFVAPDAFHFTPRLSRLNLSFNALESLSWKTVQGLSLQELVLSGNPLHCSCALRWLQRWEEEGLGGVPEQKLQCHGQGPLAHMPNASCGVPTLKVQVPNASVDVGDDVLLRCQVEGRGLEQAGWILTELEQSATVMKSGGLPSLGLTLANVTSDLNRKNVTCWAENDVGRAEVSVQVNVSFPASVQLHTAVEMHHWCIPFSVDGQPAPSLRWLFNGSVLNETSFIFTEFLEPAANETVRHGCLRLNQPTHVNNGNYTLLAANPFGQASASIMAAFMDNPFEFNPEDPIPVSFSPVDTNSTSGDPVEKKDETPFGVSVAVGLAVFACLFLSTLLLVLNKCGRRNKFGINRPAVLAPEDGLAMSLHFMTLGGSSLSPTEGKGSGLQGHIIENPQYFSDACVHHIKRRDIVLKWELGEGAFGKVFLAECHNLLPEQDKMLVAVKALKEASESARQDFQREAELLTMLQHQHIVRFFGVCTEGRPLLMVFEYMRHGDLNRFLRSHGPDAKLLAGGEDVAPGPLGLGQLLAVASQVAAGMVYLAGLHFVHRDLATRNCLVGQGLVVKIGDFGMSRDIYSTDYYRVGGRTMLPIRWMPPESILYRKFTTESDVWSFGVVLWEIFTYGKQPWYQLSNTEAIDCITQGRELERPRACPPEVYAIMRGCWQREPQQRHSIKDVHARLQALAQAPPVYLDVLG
Protocol: TrkA functional activity was measured using a DiscoverX PathHunter assay. In this assay, U2OS cells are express TrkA receptor as a fusion with the weakly complementing fragment of B-galactosidase, which DiscoverX calls “Prolink (PK)”; additionally, Shcl is fused with a larger fragment, which is called “Enzyme Acceptor (EA)”. Activation of the TrkA receptor, upon NGF addition, results in the kinase domain being phosphorylated, resulting in subsequent recruitment of Shcl-EA protein. That recruitment results in an active B-galactosidase enzyme that is detected by addition of a chemiluminescent substrate.
All reagents were purchased from DiscoverX, except for the receptor agonists (NGF, BDNF, NT3) which were purchased from Peprotech. Cells were expanded and frozen into cryovials (TrkA p75 @passage 13, 1.5×10^7 cells/vial; TrkC p75 @passage 11, 1.5×10^7 cells/vial in InVitrogen Recovery Cell Freezing media), and stored in the vapor phase of liquid nitrogen, and thawed immediately before use. Thawed cells were added to a 384-well plate (BD Falcon 384-well white/clear, TC surface 120 uL assay plates (353963), 20 uL of 0.375e6 cells/mL=>7500 cells/well), and allowed to incubate overnight. Compound (10 mM starting dose: 202.5 nL compound yielding 0.81% DMSO final in total assay volume and starting doses 81 uM) was added the following morning and allowed to incubate on cells for 1 hour. Then, 5 uL EC80 of agonist (NGF for TrkA; BDNF for TrkB; NT3 for TrkC) was added and allowed to incubate for 3 hours at room temperature. DiscoverX PathHunter detection reagent is added (12 uL to plate and components diluted in parts as per kit instructions) and the plate is further incubated for 1 hour in the dark. The plate is read via luminescence on the Perkin Elmer Envision.

| SMILES | IC50 [nM] |
| --- | --- |
| O=C(Nc1cccc(-c2nnc3n2CCC3)c1)NC1c2ccccc2-c2ccccc21 [Compound 43, 1-[3-(6,7-dihydro-5H-pyrrolo[2,1-c] [1,2,4]triazol-3-yl)phenyl]-3-(9H-fluoren-9-yl)urea] | 130 |
| Cc1nnc(-c2cccc(NC(=O)NC3c4ccccc4-c4ccccc43)c2)o1 [Compound 46, 1-(9H-fluoren-9-yl)-3-[3-(5-methyl-1,3,4-oxadiazol-2-yl)phenyl]urea] | 660 |
| Cc1nnc(-c2cccc(NC(=O)NC3c4ccccc4-c4ccccc43)c2)s1 [Compound 47, 1-(9H-fluoren-9-yl)-3-[3-(5-methyl-1,3,4-thiadiazol-2-yl)phenyl]urea] | 970 |
| O=C(Nc1cccc(-c2nnco2)c1)NC1c2ccccc2-c2ccccc21 [Compound 49, 1-(9H-fluoren-9-yl)-3-[3-(1,3,4-oxadiazol-2-yl)phenyl]urea] | 2800 |
| O=C(Nc1cccnc1-c1ccoc1)NC1c2ccccc2-c2ccccc21 [Compound 55, 1-(9H-fluoren-9-yl)-3-(2-furan-3-ylpyridin-3-yl)urea] | 390 |
| Cn1nc(-c2ccccc2)cc1NC(=O)NC1c2ccccc2-c2ccccc21 [Compound 56, 1-(9H-fluoren-9-yl)-3-(1-methyl-3-phenyl-1H-pyrazol-5-yl)urea] | 410 |
| Cc1nc(-c2ccccc2)c(NC(=O)NC2c3ccccc3-c3ccccc32)n1C [Compound 58, 1-(1,2-dimethyl-4-phenyl-1H-imidazol-5-yl)-3-(9H-fluoren-9-yl)urea] | 190 |
| CCc1nnc(-c2cccc(NC(=O)NC3c4ccccc4-c4ccccc43)c2)o1 [Compound 60, 1-[3-(5-ethyl-1,3,4-oxadiazol-2-yl)phenyl]-3-(9H-fluoren-9-yl)urea] | 560 |
| O=C(Nc1cccnc1)NC1c2ccccc2-c2ccccc21 [Compound 66, 1-(9H-fluoren-9-yl)-3-pyridin-3-ylurea] | 3500 |
| O=C(Nc1c(-c2ccco2)nc2ccccn12)NC1c2ccccc2-c2ccccc21 [Compound 68, 1-(9H-fluoren-9-yl)-3-(2-furan-2-ylimidazo[1,2-a]pyridin-3-yl)urea] | 970 |
| O=C(Nc1c(-c2ccncc2)nc2ccccn12)NC1c2ccccc2-c2ccccc21 [Compound 69, 1-(9H-fluoren-9-yl)-3-(2-pyridin-4-ylimidazo[1,2-a]pyridin-3-yl)urea] | 770 |
| Cn1ncnc1-c1cncc(NC(=O)NC2c3ccccc3-c3ccccc32)c1 [Compound 74, 1-(9H-fluoren-9-yl)-3-[5-(1-methyl-1H-1,2,4-triazol-5-yl)pyridin-3-yl]urea] | 990 |
| O=C(Nc1cccnc1-c1ccccc1F)NC1c2ccccc2-c2ccccc21 [Compound 76, 1-(9H-fluoren-9-yl)-3-[2-(2-fluorophenyl)pyridin-3-yl]urea] | 320 |
| Cc1nc(NC(=O)NC2c3ccccc3-c3ccccc32)n(-c2ccccc2)n1 [Compound 78, 1-(9H-fluoren-9-yl)-3-(3-methyl-1-phenyl-1H-1,2,4-triazol-5-yl)urea] | 520 |
| Cn1ncnc1-c1cccc(NC(=O)NC2c3ccccc3-c3ccccc32)c1 [Compound 79, 1-(9H-fluoren-9-yl)-3-[3-(1-methyl-1H-1,2,4-triazol-5-yl)phenyl]urea] | 73 |
| O=C(Nc1ccnc(-c2ccccc2)c1)NC1c2ccccc2-c2ccccc21 [Compound 80, 1-(9H-fluoren-9-yl)-3-(2-phenylpyridin-4-yl)urea] | 670 |
| O=C(Nc1cccnc1-n1cccn1)NC1c2ccccc2-c2ccccc21 [Compound 83, 1-(9H-fluoren-9-yl)-3-[2-(1H-pyrazol-1-yl)pyridin-3-yl]urea] | 3000 |
| O=C(Nc1cc(F)cnc1-c1ccccc1)NC1c2ccccc2-c2ccccc21 [Compound 84, 1-(9H-fluoren-9-yl)-3-(5-fluoro-2-phenylpyridin-3-yl)urea] | 47 |

The remaining compounds from weak to strong by IC50, led by results:

| IC50 [nM] | SMILES |
| --- | --- |
| 4800 | O=C(Nc1ncnn1-c1ccccc1)NC1c2ccccc2-c2ccccc21 [Compound 67, 1-(9H-fluoren-9-yl)-3-(1-phenyl-1H-1,2,4-triazol-5-yl)urea] |
| 3900 | Cc1nc(-c2ccccc2)c(NC(=O)NC2c3ccccc3-c3ccccc32)o1 [Compound 81, 1-(9H-fluoren-9-yl)-3-(2-methyl-4-phenyl-1,3-oxazol-5-yl)urea] |
| 3000 | O=C(Nc1cccnc1-c1cccnc1)NC1c2ccccc2-c2ccccc21 [Compound 51, 1-(2,3′-bipyridin-3-yl)-3-(9H-fluoren-9-yl)urea] |
| 2800 | O=C(Nc1cccnc1-c1ccco1)NC1c2ccccc2-c2ccccc21 [Compound 54, 1-(9H-fluoren-9-yl)-3-(2-furan-2-ylpyridin-3-yl)urea] |
| 2800 | Cn1nccc1-c1cncc(NC(=O)NC2c3ccccc3-c3ccccc32)c1 [Compound 73, 1-(9H-fluoren-9-yl)-3-[5-(1-methyl-1H-pyrazol-5-yl)pyridin-3-yl]urea] |
| 2200 | O=C(Nc1conc1-c1ccccc1)NC1c2ccccc2-c2ccccc21 [Compound 70, 1-(9H-fluoren-9-yl)-3-(3-phenylisoxazol-4-yl)urea] |
| 1400 | O=C(Nc1cccc(-c2nc(C3CC3)n[nH]2)c1)NC1c2ccccc2-c2ccccc21 [Compound 45, 1-[3-(3-cyclopropyl-1H-1,2,4-triazol-5-yl)phenyl]-3-(9H-fluoren-9-yl)urea] |
| 1400 | O=C(Nc1cncc(-c2cccnc2)c1)NC1c2ccccc2-c2ccccc21 [Compound 72, 1-(3,3′-bipyridin-5-yl)-3-(9H-fluoren-9-yl)urea] |
| 1300 | O=C(Nc1cccc(-n2cnnn2)c1)NC1c2ccccc2-c2ccccc21 [Compound 57, 1-(9H-fluoren-9-yl)-3-[3-(1H-tetrazol-1-yl)phenyl]urea] |
| 1300 | Cc1cnc(-c2cccc(NC(=O)NC3c4ccccc4-c4ccccc43)c2)o1 [Compound 62, 1-(9H-fluoren-9-yl)-3-[3-(5-methyl-1,3-oxazol-2-yl)phenyl]urea] |
| 1200 | Cc1ccccc1-c1ncccc1NC(=O)NC1c2ccccc2-c2ccccc21 [Compound 77, 1-(9H-fluoren-9-yl)-3-[2-(2-methylphenyl)pyridin-3-yl]urea] |
| 880 | O=C(Nc1cccnc1-c1ccncc1)NC1c2ccccc2-c2ccccc21 [Compound 50, 1-(2,4′-bipyridin-3-yl)-3-(9H-fluoren-9-yl)urea] |
| 670 | CN(C)C(=O)c1cccc(NC(=O)NC2c3ccccc3-c3ccccc32)c1 [Compound 61, 3-[(9H-fluoren-9-ylcarbamoyl)amino]-N,N-dimethylbenzamide] |
| 540 | O=C(Nc1cccnc1-c1ccnc(F)c1)NC1c2ccccc2-c2ccccc21 [Compound 53, 1-(9H-fluoren-9-yl)-3-(2′-fluoro-2,4′-bipyridin-3-yl)urea] |
| 500 | Cc1nc(-c2ccccc2)c(NC(=O)NC2c3ccccc3-c3ccccc32)[nH]1 [Compound 59, 1-(9H-fluoren-9-yl)-3-(2-methyl-4-phenyl-1H-imidazol-5-yl)urea] |
| 410 | CCn1cnnc1-c1cccc(NC(=O)NC2c3ccccc3-c3ccccc32)c1 [Compound 44, 1-[3-(4-ethyl-4H-1,2,4-triazol-3-yl)phenyl]-3-(9H-fluoren-9-yl)urea] |
| 360 | O=C(Nc1cccc(-c2nnc[nH]2)c1)NC1c2ccccc2-c2ccccc21 [Compound 48, 1-(9H-fluoren-9-yl)-3-[3-(4H-1,2,4-triazol-3-yl)phenyl]urea] |
| 330 | Cn1nnnc1-c1cccc(NC(=O)NC2c3ccccc3-c3ccccc32)c1 [Compound 64, 1-(9H-fluoren-9-yl)-3-[3-(l-methyl-1H-tetrazol-5-yl)phenyl]urea] |
| 310 | Cc1nc(-c2cccc(NC(=O)NC3c4ccccc4-c4ccccc43)c2)oc1C [Compound 65, 1-[3-(4,5-dimethyl-1,3-oxazol-2-yl)phenyl]-3-(9H-fluoren-9-yl)urea] |
| 260 | Cn1ccnc1-c1cncc(NC(=O)NC2c3ccccc3-c3ccccc32)c1 [Compound 82, 1-(9H-fluoren-9-yl)-3-[5-(1-methyl-1H-imidazol-2-yl)pyridin-3-yl]urea] |
| 190 | O=C(Nc1cccnc1-c1cccc(F)c1)NC1c2ccccc2-c2ccccc21 [Compound 75, 1-(9H-fluoren-9-yl)-3-[2-(3-fluorophenyl)pyridin-3-yl]urea] |
| 120 | Cc1cnc(-c2ccccc2)c(NC(=O)NC2c3ccccc3-c3ccccc32)c1 [Compound 71, 1-(9H-fluoren-9-yl)-3-(5-methyl-2-phenylpyridin-3-yl)urea] |
| 100 | O=C(Nc1cccnc1-c1ccc(F)cc1)NC1c2ccccc2-c2ccccc21 [Compound 52, 1-(9H-fluoren-9-yl)-3-[2-(4-fluorophenyl)pyridin-3-yl]urea] |
| 96 | Cn1ccnc1-c1cccc(NC(=O)NC2c3ccccc3-c3ccccc32)c1 [Compound 63, 1-(9H-fluoren-9-yl)-3-[3-(l-methyl-1H-imidazol-2-yl)phenyl]urea] |
